Data taken from patent US20260007681A1, “INDOLE DERIVATIVES AS ESTROGEN RECEPTOR DEGRADERS” (REGENTS OF THE UNIVERSITY OF MICHIGAN, priority 2022, published 2026).

The compounds below were run against ER (Homo sapiens (Human), UniProt P03372) (assay: Western blot analysis (Compounds B1-B278)). Settings: ER degradation by traditional Western blot; DC50 classes.
Type: cell-based
Outline: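 Relative target-protein levels come from densitometry of immunoblots, normalized to GAPDH. Lysates from treated cells were prepared in RIPA buffer (pH 7.6) containing protease inhibitors, and equal protein amounts, checked by BCA, were separated on 10% gels and blotted onto PVDF.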

Sequence of ER (P03372 whole entry): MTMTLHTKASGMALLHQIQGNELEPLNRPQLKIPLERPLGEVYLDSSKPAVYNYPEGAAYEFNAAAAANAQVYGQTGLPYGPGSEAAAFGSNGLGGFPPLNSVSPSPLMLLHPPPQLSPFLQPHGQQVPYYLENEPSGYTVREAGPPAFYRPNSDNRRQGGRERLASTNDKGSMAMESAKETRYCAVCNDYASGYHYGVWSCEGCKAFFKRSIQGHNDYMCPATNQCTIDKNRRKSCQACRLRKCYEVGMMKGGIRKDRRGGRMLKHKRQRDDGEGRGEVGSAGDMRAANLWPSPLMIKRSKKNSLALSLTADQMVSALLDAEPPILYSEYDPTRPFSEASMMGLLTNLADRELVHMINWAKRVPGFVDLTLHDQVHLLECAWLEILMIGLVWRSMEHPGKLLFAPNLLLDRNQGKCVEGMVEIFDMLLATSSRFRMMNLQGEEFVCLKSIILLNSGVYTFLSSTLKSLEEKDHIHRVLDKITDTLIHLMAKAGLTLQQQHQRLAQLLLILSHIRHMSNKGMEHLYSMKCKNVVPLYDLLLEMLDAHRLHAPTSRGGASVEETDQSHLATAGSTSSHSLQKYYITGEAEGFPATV

| Traditional Western Degradation Potency | SMILES |
| --- | --- |
| C (“C”: >100 nM) | C[C@@H]1Cc2c([nH]c3ccccc23)[C@H](c2c(F)cc(CN3CCC4(CCC(CN5Cc6cc7c(cc6C5)C(=O)N(C5CCC(=O)NC5=O)C7=O)CC4)CC3)cc2F)N1CC(F)F (stereo partly drawn) [Compound B102, 6-((3-(4-((1S,3R)-2-(2,2-difluoroethyl)-3-methyl-2,3,4,9-tetrahydro-1H-pyrido[3,4-b]indol-1-yl)-3,5-difluorobenzyl)-3-azaspiro[5.5]undecan-9-yl)methyl)-2-(2,6-dioxopiperidin-3-yl)-6,7-dihydropyrrolo[3,4-f]isoindole-1,3(2H,5H)-dione] |
| A (“A”: <10 nM) | C[C@@H]1Cc2c([nH]c3ccccc23)[C@@H](c2c(F)cc(N3CCC(CN4CCCC(N5Cc6cc7c(cc6C5)C(=O)N(C5CCC(=O)NC5=O)C7=O)CC4)CC3)cc2F)N1CC(F)F (stereo partly drawn) [Compound B67, 6-(1-((1-(4-((1R,3R)-2-(2,2-difluoroethyl)-3-methyl-2,3,4,9-tetrahydro-1H-pyrido[3,4-b]indol-1-yl)-3,5-difluorophenyl)piperidin-4-yl)methyl)azepan-4-yl)-2-(2,6-dioxopiperidin-3-yl)-6,7-dihydropyrrolo[3,4-f]isoindole-1,3(2H,5H)-dione] |
| C (“C”: >100 nM) | C[C@@H]1Cc2c([nH]c3ccccc23)[C@@H](c2c(F)cc(C3CCC4(CC3)CCN(C(=O)CN3Cc5cc6c(cc5C3)C(=O)N(C3CCC(=O)NC3=O)C6=O)CC4)cc2F)N1CC(F)F (stereo partly drawn) [Compound B244, 6-(2-(9-(4-((1R,3R)-2-(2,2-difluoroethyl)-3-methyl-2,3,4,9-tetrahydro-1H-pyrido[3,4-b]indol-1-yl)-3,5-difluorophenyl)-3-azaspiro[5.5]undecan-3-yl)-2-oxoethyl)-2-(2,6-dioxopiperidin-3-yl)-6,7-dihydropyrrolo[3,4-f]isoindole-1,3(2H,5H)-dione] |
| C (“C”: >100 nM) | C[C@@H]1Cc2c([nH]c3ccccc23)[C@@H](c2c(F)cc(N3CCC(CN4CCC(C(=O)N5Cc6cc7c(cc6C5)C(=O)N(C5CCC(=O)NC5=O)C7=O)CC4)CC3)cc2F)N1CC(F)F (stereo partly drawn) [Compound B211, 6-(1-((1-(4-((1R,3R)-2-(2,2-difluoroethyl)-3-methyl-2,3,4,9-tetrahydro-1H-pyrido[3,4-b]indol-1-yl)-3,5-difluorophenyl)piperidin-4-yl)methyl)piperidine-4-carbonyl)-2-(2,6-dioxopiperidin-3-yl)-6,7-dihydropyrrolo[3,4-f]isoindole-1,3(2H,5H)-dione] |
| A (“A”: <10 nM) | C[C@@H]1Cc2c([nH]c3ccccc23)[C@@H](c2c(F)cc(C3CCC(C(=O)N4CC(CN5Cc6cc7c(cc6C5)C(=O)N(C5CCC(=O)NC5=O)C7=O)C4)CC3)cc2F)N1CC(F)F (stereo partly drawn) [Compound B81, 6-((1-(4-(4-((1R,3R)-2-(2,2-difluoroethyl)-3-methyl-2,3,4,9-tetrahydro-1H-pyrido[3,4-b]indol-1-yl)-3,5-difluorophenyl)cyclohexane-1-carbonyl)azetidin-3-yl)methyl)-2-(2,6-dioxopiperidin-3-yl)-6,7-dihydropyrrolo[3,4-f]isoindole-1,3(2H,5H)-dione] |
| C (“C”: >100 nM) | COc1nc(C2CCC(C(=O)N3CCC(N4Cc5cc6c(cc5C4)C(=O)N(C4CCC(=O)NC4=O)C6=O)CC3)CC2)ccc1[C@@H]1c2[nH]c3ccccc3c2C[C@@H](C)N1CC(F)F (stereo partly drawn) [Compound B113, 6-(1-(4-(5-((1R,3R)-2-(2,2-difluoroethyl)-3-methyl-2,3,4,9-tetrahydro-1H-pyrido[3,4-b]indol-1-yl)-6-methoxypyridin-2-yl)cyclohexane-1-carbonyl)piperidin-4-yl)-2-(2,6-dioxopiperidin-3-yl)-6,7-dihydropyrrolo[3,4-f]isoindole-1,3(2H,5H)-dione] |
| A (“A”: <10 nM) | C[C@@H]1Cc2c([nH]c3ccccc23)[C@@H](c2c(F)cc(N3CCC(CN4CCC(C(=O)N5Cc6cc7c(cc6C5)C(=O)N(C5CCC(=O)NC5=O)C7=O)CC4)C3)cc2F)N1CC(F)F (stereo partly drawn) [Compound B188, 6-(1-((1-(4-((1R,3R)-2-(2,2-difluoroethyl)-3-methyl-2,3,4,9-tetrahydro-1H-pyrido[3,4-b]indol-1-yl)-3,5-difluorophenyl)pyrrolidin-3-yl)methyl)piperidine-4-carbonyl)-2-(2,6-dioxopiperidin-3-yl)-6,7-dihydropyrrolo[3,4-f]isoindole-1,3(2H,5H)-dione] |
| A (“A”: <10 nM) | C[C@@H]1Cc2c([nH]c3ccccc23)[C@@H](c2c(F)cc(N3CCC(N4CCC(CC(=O)N5Cc6cc7c(cc6C5)C(=O)N(C5CCC(=O)NC5=O)C7)CC4)CC3)cc2F)N1CC(F)F (stereo partly drawn) [Compound B34, 3-(6-(2-(1′-(4-((1R,3R)-2-(2,2-difluoroethyl)-3-methyl-2,3,4,9-tetrahydro-1H-pyrido[3,4-b]indol-1-yl)-3,5-difluorophenyl)-[1,4′-bipiperidin]-4-yl)acetyl)-1-oxo-3,5,6,7-tetrahydropyrrolo[3,4-f]isoindol-2(1H)-yl)piperidine-2,6-dione] |
| C (“C”: >100 nM) | COc1cc([C@H]2CC[C@@H](C(=O)N3CCC(N4Cc5cc6c(cc5C4)C(=O)N(C4CCC(=O)NC4=O)C6=O)CC3)CC2)ccc1[C@@H]1c2[nH]c3ccccc3c2C[C@@H](C)N1CC(F)F (stereo partly drawn) [Compound B112, 6-(1-((1S,4s)-4-(4-((1R,3R)-2-(2,2-difluoroethyl)-3-methyl-2,3,4,9-tetrahydro-1H-pyrido[3,4-b]indol-1-yl)-3-methoxyphenyl)cyclohexane-1-carbonyl)piperidin-4-yl)-2-(2,6-dioxopiperidin-3-yl)-6,7-dihydropyrrolo[3,4-f]isoindole-1,3(2H,5H)-dione] |
| C (“C”: >100 nM) | C[C@@H]1Cc2c([nH]c3ccccc23)[C@@H](c2c(F)cc(C(=O)N3CCC4(CC3)CC(CN3Cc5cc6c(cc5C3)C(=O)N(C3CCC(=O)NC3=O)C6=O)C4)cc2F)N1CC(F)F (stereo partly drawn) [Compound B97, 6-((7-(4-((1R,3R)-2-(2,2-difluoroethyl)-3-methyl-2,3,4,9-tetrahydro-1H-pyrido[3,4-b]indol-1-yl)-3,5-difluorobenzoyl)-7-azaspiro[3.5]nonan-2-yl)methyl)-2-(2,6-dioxopiperidin-3-yl)-6,7-dihydropyrrolo[3,4-f]isoindole-1,3(2H,5H)-dione] |
| B (“B”: 10-100 nM) | C[C@@H]1Cc2c([nH]c3ccccc23)[C@@H](c2c(F)cc(C3CCN(C(=O)[C@H]4CC[C@@H](N5Cc6cc7c(cc6C5)C(=O)N(C5CCC(=O)NC5=O)C7=O)CC4)CC3)cc2F)N1CC(F)F (stereo partly drawn) [Compound B105, 6-((1S,4s)-4-(4-(4-((1R,3R)-2-(2,2-difluoroethyl)-3-methyl-2,3,4,9-tetrahydro-1H-pyrido[3,4-b]indol-1-yl)-3,5-difluorophenyl)piperidine-1-carbonyl)cyclohexyl)-2-(2,6-dioxopiperidin-3-yl)-6,7-dihydropyrrolo[3,4-f]isoindole-1,3(2H,5H)-dione] |
